Laboratory results published in patent US12180499B2, “Compositions and methods for impeding transcription of expanded microsatellite repeats” (University of Florida Research Foundation, Inc., priority 2016, dated 2024).

Tested on: genomic loci with CTG repeat tracts
Experiment: dCas9 chromatin immunoprecipitation (ChIP) in stable CTG repeat HeLa line
Assay type: binding, human
Conditions: 960 CTG repeats; ChIP relative to control gRNA
Method: However, these experiments were performed using transiently transfected plasmids, which may not accurately model all aspects of transcriptional regulation in a genomic context. Furthermore, experiments to assess binding of protein complexes to DNA loci are most commonly performed using genomic targets and not plasmids. Therefore, a HeLa cell line was established in which transgenes for each of the 6 CTG repeat lengths, with associated barcodes, were stably integrated (FIG. 14B). To measure DNA binding by dCas9-gRNA complexes, chromatin immunoprecipitation (ChIP) was performed against dCas9 in the presence of (CAG)6 gRNA or non-targeting control gRNA. Similar to MBTA-Seq, the barcodes were deep sequenced to quantitate abundance of immunoprecipitated DNA encoding each repeat length. To confirm transcriptional repression in this cell line, RNA abundance was measured by MBTA-Seq following transfection of dCas9-gRNA complexes. It was observed that dCas9-gRNA binding to DNA increased as a function of repeat length, concomitant with a decrease in relative RNA abundance, when comparing (CAG)6 (SEQ ID NO: 1) gRNA to control (FIG. 7C). In a genomic context, dCas9-gRNA reduced the abundance of transcripts containing 960 CUG repeats (SEQ ID) NO: 24) to ˜20%, and was associated with ˜8-fold increased binding relative to genomic loci without CTG repeat tracts. […]

## (CAG)6 gRNA: guide RNA SEQ ID NO:1 targeting CTG repeats (non-template strand, CAG PAM), co-expressed with deactivated SpCas9 (guide CAGCAGCAGCAGCAGCAG; listed as DNA, chemistry not fully specified; listed as Mus musculus)
  increased dCas9-gRNA binding relative to genomic loci without CTG repeat tracts: ~8 fold
